{"source": "patent US20220340629A1", "about": "“Myosin Derived Peptides and Related Compounds with Anticoagulant Activities” (THE SCRIPPS RESEARCH INSTITUTE, priority 0001, published 2022)", "note": "Starred links: 1 amine or outer side, 2 acyl side, 3 side chain; linkers in the order of their positions; H or OH if unused. Positions of bridges follow the written chain, without caps; N, C: chain ends. Residues, ends and D or L forms follow the SMILES beside them. Suc = O=C(CCC(=O)[*:2])[*:1]"}
{"tested_on": "thrombin generation in human platelet poor plasma with skeletal muscle myosin", "test": "Assay 2A: thrombin generation, recalcification of human platelet poor plasma + myosin", "format": "biochemical", "conditions": "human platelet poor plasma 30%, myosin 50 nM, CaCl2 10 mmol/L; read-out: 2A (recalcification +myosin)", "method": "Activities of the various peptides and derivative compounds were also examined via assays using recalcification of human plasma. [One of] these assay format (2A) involves monitoring thrombin generation in platelet poor plasma (PPP). Specifically, pooled normal human platelet poor plasma (PPP) (obtained from George King Bio Medical Inc., Overland Park, Kans.) (30%) was incubated with skeletal muscle myosin at 50 nM in the presence of peptide in DMSO or DMSO alone for 5 min at 37° C. Then, fluorogenic thrombin substrate solution (Z-Gly-Gly-Arg-AMC) (I-1140) with CaCl2 (10 mmol/L final) alone was added to the reaction mixture (total 110 μl) to initiate coagulation. Thrombin generation was followed continuously for 25 min using SPECTRAmax GEMINI XS fluorometer (Molecular Devices, Sunnyvale, Calif.) with excitation and emission wavelengths set at 360 and 460 nm, respectively. The first derivative of fluorescence versus time was used to produce thrombin generation curves with the correction for substrate consumption and inner filter effect. For this assay 96 well plate (total 110 μL) or 384 well plates (total 30 μL) were used.\nActivities obtained from Assay 2A (recalcification of human plasma in the presence of myosin) were used to rank the various peptides listed in Table 3. As noted above, this assay monitors recalcification of plasma to stimulate thrombin generation. In this assay, potency of the compounds was determined as the peptide concentration for 50% inhibition of thrombin generation, defined as “IC50”.", "units": {"IC50": "µM"}}
{"smiles": "CC[C@H](C)[C@H](NC(=O)[C@H](C)NC(=O)[C@H](CCC(=O)O)NC(=O)[C@H](CCCNC(=N)N)NC(=O)[C@H](CCCNC(=N)N)NC(=O)[C@@H]1CCCCNC(=O)CCC(=O)NCCCC[C@@H]2NC(=O)[C@@H](NC(=O)[C@H](C)NC(=O)[C@H](CC(C)C)NC(=O)[C@H](Cc3ccccc3)NC(=O)CNC(=O)[C@H](CCCNC(=N)N)NC(=O)[C@H](CS)NC(=O)[C@H](CCCNC(=N)N)NC(=O)[C@H](C)N)CCCCNC(=O)CCC(=O)NCCCC[C@H](NC(=O)[C@H](CCSC)NC(=O)[C@H](CCCNC(=N)N)NC(=O)[C@H](CCC(N)=O)NC(=O)[C@H](Cc3ccc(O)cc3)NC(=O)[C@H](CCC(=O)O)NC2=O)C(=O)N1)C(=O)N[C@@H](Cc1ccccc1)C(=O)N[C@@H](CS)C(=O)N[C@H](C(=O)N[C@@H](CCC(N)=O)C(=O)N[C@@H](Cc1ccc(O)cc1)C(=O)N[C@@H](CC(N)=O)C(=O)N[C@H](C(=O)N[C@@H](CCCNC(=N)N)C(=O)N[C@@H](CO)C(=O)N[C@@H](Cc1ccccc1)C(=O)N[C@@H](CCSC)C(=O)N[C@@H](CC(N)=O)C(=O)N[C@H](C(=O)N[C@@H](CCCCN)C(=O)N[C@@H](Cc1c[nH]cn1)C(=O)N[C@@H](Cc1c[nH]c2ccccc12)C(=O)N1CCC[C@H]1C(=O)N[C@@H](Cc1c[nH]c2ccccc12)C(N)=O)C(C)C)[C@@H](C)CC)[C@@H](C)CC", "note": "[HC156] (H-ARCRGFLAKKEYQRMKKRREAIFCIQYNIRSFMNVKHWPW-NH2; linker 9-16, 10-17 via Suc (inferred); N-terminus and C-terminus assumed)", "IC50": 9.3}
{"smiles": "CC[C@H](C)[C@H](NC(=O)[C@H](C)NC(=O)[C@H](CCC(=O)O)NC(=O)[C@@H]1CCCCNC(=O)CCC(=O)NCCCC[C@@H]2NC(=O)[C@H](CCC(=O)O)NC(=O)[C@H](C(C)C)NC(=O)[C@@H](NC(=O)[C@H](C)NC(=O)[C@H](CC(C)C)NC(=O)[C@H](Cc3ccccc3)NC(=O)CNC(=O)[C@H](CCCNC(=N)N)NC(=O)[C@H](CS)NC(=O)[C@H](CCCNC(=N)N)NC(=O)[C@H](C)N)CCCCNC(=O)CCC(=O)NCCCC[C@H](NC(=O)[C@H](CCSC)NC(=O)[C@H](CCCNC(=N)N)NC(=O)[C@H](CCC(N)=O)NC2=O)C(=O)N[C@@H](CCC(=O)O)C(=O)N[C@@H](CCCNC(=N)N)C(=O)N1)C(=O)N[C@@H](Cc1ccccc1)C(=O)N[C@@H](CS)C(=O)N[C@H](C(=O)N[C@@H](CCC(N)=O)C(=O)N[C@@H](Cc1ccc(O)cc1)C(=O)N[C@@H](CC(N)=O)C(=O)N[C@H](C(=O)N[C@@H](CCCNC(=N)N)C(=O)N[C@@H](CO)C(=O)N[C@@H](Cc1ccccc1)C(=O)N[C@@H](CCSC)C(=O)N[C@@H](CC(N)=O)C(=O)N[C@H](C(=O)N[C@@H](CCCCN)C(=O)N[C@@H](Cc1c[nH]cn1)C(=O)N[C@@H](Cc1c[nH]c2ccccc12)C(=O)N1CCC[C@H]1C(=O)N[C@@H](Cc1c[nH]c2ccccc12)C(N)=O)C(C)C)[C@@H](C)CC)[C@@H](C)CC", "note": "[HC157] (H-ARCRGFLAKVEKQRMKERKEAIFCIQYNIRSFMNVKHWPW-NH2; linker 9-16, 12-19 via Suc (inferred); N-terminus and C-terminus assumed)", "IC50": 11}
{"smiles": "CC[C@H](C)[C@H](NC(=O)[C@H](C)NC(=O)[C@@H]1CCCCNC(=O)CCC(=O)NCCCC[C@@H]2NC(=O)[C@H](Cc3ccc(O)cc3)NC(=O)[C@H](CCC(=O)O)NC(=O)[C@H](C(C)C)NC(=O)[C@@H](NC(=O)[C@H](C)NC(=O)[C@H](CC(C)C)NC(=O)[C@H](Cc3ccccc3)NC(=O)CNC(=O)[C@H](CCCNC(=N)N)NC(=O)[C@H](CS)NC(=O)[C@H](CCCNC(=N)N)NC(=O)[C@H](C)N)CCCCNC(=O)CCC(=O)NCCCC[C@H](NC(=O)[C@H](CCSC)NC(=O)[C@H](CCCNC(=N)N)NC2=O)C(=O)N[C@@H](CCC(=O)O)C(=O)N[C@@H](CCCNC(=N)N)C(=O)N[C@@H](CCCNC(=N)N)C(=O)N1)C(=O)N[C@@H](Cc1ccccc1)C(=O)N[C@@H](CS)C(=O)N[C@H](C(=O)N[C@@H](CCC(N)=O)C(=O)N[C@@H](Cc1ccc(O)cc1)C(=O)N[C@@H](CC(N)=O)C(=O)N[C@H](C(=O)N[C@@H](CCCNC(=N)N)C(=O)N[C@@H](CO)C(=O)N[C@@H](Cc1ccccc1)C(=O)N[C@@H](CCSC)C(=O)N[C@@H](CC(N)=O)C(=O)N[C@H](C(=O)N[C@@H](CCCCN)C(=O)N[C@@H](Cc1c[nH]cn1)C(=O)N[C@@H](Cc1c[nH]c2ccccc12)C(=O)N1CCC[C@H]1C(=O)N[C@@H](Cc1c[nH]c2ccccc12)C(N)=O)C(C)C)[C@@H](C)CC)[C@@H](C)CC", "note": "[HC158] (H-ARCRGFLAKVEYKRMKERRKAIFCIQYNIRSFMNVKHWPW-NH2; linker 9-16, 13-20 via Suc (inferred); N-terminus and C-terminus assumed)", "IC50": 5.8}
{"smiles": "CC[C@H](C)[C@@H]1NC(=O)[C@H](C)NC(=O)[C@@H](NC(=O)[C@H](CCCNC(=N)N)NC(=O)[C@H](CCCNC(=N)N)NC(=O)[C@H](CCC(=O)O)NC(=O)[C@@H]2CCCCNC(=O)CCC(=O)NCCCC[C@H](NC(=O)[C@H](C)NC(=O)[C@H](CC(C)C)NC(=O)[C@H](Cc3ccccc3)NC(=O)CNC(=O)[C@H](CCCNC(=N)N)NC(=O)[C@H](CS)NC(=O)[C@H](CCCNC(=N)N)NC(=O)[C@H](C)N)C(=O)N[C@@H](C(C)C)C(=O)N[C@@H](CCC(=O)O)C(=O)N[C@@H](Cc3ccc(O)cc3)C(=O)N[C@@H](CCC(N)=O)C(=O)N[C@@H](CCCNC(=N)N)C(=O)N[C@@H](CCSC)C(=O)N2)CCCCNC(=O)CCC(=O)NCCCC[C@@H](C(=O)N[C@@H](CC(N)=O)C(=O)N[C@H](C(=O)N[C@@H](CCCNC(=N)N)C(=O)N[C@@H](CO)C(=O)N[C@@H](Cc2ccccc2)C(=O)N[C@@H](CCSC)C(=O)N[C@@H](CC(N)=O)C(=O)N[C@H](C(=O)N[C@@H](CCCCN)C(=O)N[C@@H](Cc2c[nH]cn2)C(=O)N[C@@H](Cc2c[nH]c3ccccc23)C(=O)N2CCC[C@H]2C(=O)N[C@@H](Cc2c[nH]c3ccccc23)C(N)=O)C(C)C)[C@@H](C)CC)NC(=O)[C@H](CCC(N)=O)NC(=O)[C@H]([C@@H](C)CC)NC(=O)[C@H](CS)NC(=O)[C@H](Cc2ccccc2)NC1=O", "note": "[HC159] (H-ARCRGFLAKVEYQRMKERRKAIFCIQKNIRSFMNVKHWPW-NH2; linker 9-16, 20-27 via Suc (inferred); N-terminus and C-terminus assumed)", "IC50": 13.3}
{"smiles": "CC[C@H](C)[C@H](NC(=O)[C@H](C)NC(=O)[C@H](CCC(=O)O)NC(=O)[C@H](CCCNC(=N)N)NC(=O)[C@H](CCCNC(=N)N)NC(=O)[C@H](CCC(=O)O)NC(=O)[C@@H]1CCCCNC(=O)CCC(=O)NCCCC[C@H](NC(=O)[C@H](C)NC(=O)[C@H](CC(C)C)NC(=O)[C@H](Cc2ccccc2)NC(=O)CNC(=O)[C@H](CCCNC(=N)N)NC(=O)[C@H](CS)NC(=O)[C@H](CCCNC(=N)N)NC(=O)[C@H](C)N)C(=O)N[C@@H](C(C)C)C(=O)N[C@@H](CCC(=O)O)C(=O)N[C@@H](Cc2ccc(O)cc2)C(=O)N[C@@H](CCC(N)=O)C(=O)N[C@@H](CCCNC(=N)N)C(=O)N[C@@H](CCSC)C(=O)N1)C(=O)N[C@@H](Cc1ccccc1)C(=O)N[C@H]1CCCCNC(=O)CCC(=O)NCCCC[C@@H](C(=O)N[C@@H](Cc2ccccc2)C(=O)N[C@@H](CCSC)C(=O)N[C@@H](CC(N)=O)C(=O)N[C@H](C(=O)N[C@@H](CCCCN)C(=O)N[C@@H](Cc2c[nH]cn2)C(=O)N[C@@H](Cc2c[nH]c3ccccc23)C(=O)N2CCC[C@H]2C(=O)N[C@@H](Cc2c[nH]c3ccccc23)C(N)=O)C(C)C)NC(=O)[C@H](CCCNC(=N)N)NC(=O)[C@H]([C@@H](C)CC)NC(=O)[C@H](CC(N)=O)NC(=O)[C@H](Cc2ccc(O)cc2)NC(=O)[C@H](CCC(N)=O)NC(=O)[C@H]([C@@H](C)CC)NC1=O", "note": "[HC160] (H-ARCRGFLAKVEYQRMKERREAIFKIQYNIRKFMNVKHWPW-NH2; linker 9-16, 24-31 via Suc (inferred); N-terminus and C-terminus assumed)", "IC50": 3.4}
{"smiles": "CC[C@H](C)[C@H](NC(=O)[C@H](C)NC(=O)[C@H](CCC(=O)O)NC(=O)[C@H](CCCNC(=N)N)NC(=O)[C@H](CCCNC(=N)N)NC(=O)[C@H](CCC(=O)O)NC(=O)[C@@H]1CCCCNC(=O)CCC(=O)NCCCC[C@H](NC(=O)[C@H](C)NC(=O)[C@H](CC(C)C)NC(=O)[C@H](Cc2ccccc2)NC(=O)CNC(=O)[C@H](CCCNC(=N)N)NC(=O)[C@H](CS)NC(=O)[C@H](CCCNC(=N)N)NC(=O)[C@H](C)N)C(=O)N[C@@H](C(C)C)C(=O)N[C@@H](CCC(=O)O)C(=O)N[C@@H](Cc2ccc(O)cc2)C(=O)N[C@@H](CCC(N)=O)C(=O)N[C@@H](CCCNC(=N)N)C(=O)N[C@@H](CCSC)C(=O)N1)C(=O)N[C@@H](Cc1ccccc1)C(=O)N[C@@H](CS)C(=O)N[C@H](C(=O)N[C@@H](CCC(N)=O)C(=O)N[C@@H](Cc1ccc(O)cc1)C(=O)N[C@@H](CC(N)=O)C(=O)N[C@H](C(=O)N[C@@H](CCCNC(=N)N)C(=O)N[C@H]1CCCCNC(=O)CCC(=O)NCCCC[C@@H](C(=O)N2CCC[C@H]2C(=O)N[C@@H](Cc2c[nH]c3ccccc23)C(N)=O)NC(=O)[C@H](Cc2c[nH]cn2)NC(=O)[C@H](CCCCN)NC(=O)[C@H](C(C)C)NC(=O)[C@H](CC(N)=O)NC(=O)[C@H](CCSC)NC(=O)[C@H](Cc2ccccc2)NC1=O)[C@@H](C)CC)[C@@H](C)CC", "note": "[HC161] (H-ARCRGFLAKVEYQRMKERREAIFCIQYNIRKFMNVKHKPW-NH2; linker 9-16, 31-38 via Suc (inferred); N-terminus and C-terminus assumed)", "IC50": 6.4}
